Source: US20050222036A1, “Peptide compositions with effects on blood glucose” (priority 2000, published 2005)

Key:
[1] = system: rat insulinoma cell line expressing the GLP-1R (RINm5f); test: ELISA of culture media for insulin, RINm5f cells; format: cell-based; details: 10 nM peptide, 6 hours
Procedure: To confirm biologic activity of Gilatide peptides or analogs, a rat insulinoma cell line expressing the GLP-1R (RINm5f) can be cultured and incubated the Gilatide peptide or analogs followed by an ELISA study as described below.
To confirm biological activity of synthesized Gilatide peptide ([Ser(2)]exendin(1-9)) that was synthesized with a stearic acid residue added to the N-terminus, GLP-1 or [Ser(2)]exendin(1-9) (10 nM) were incubated with the cultured rat insulinoma cell line expressing the GLP-1R (RINm5f) in the presence or absence of the GLP-1R antagonist, exendin(9-39) (10 nM). Rat insulinoma cells (RINm5f) were cultured in 24 well plates and incubated in serum-free medium for 1 hour before treatment. The GLP-1 peptide antagonist exendin (9-39) (10 nM) was added 1 hour prior to GLP-1 (7-36) or [Ser(2)]exendin(1-9) (10 nM). Cells were then incubated for 6 hours in the presence of either GLP-1 or [Ser(2)]exendin(1-9). Media were then removed and assayed for insulin concentrations via ELISA (Pennisula Labs, San Carlos, Calif.).

rats = test: Passive avoidance (PA), associative learning in rats; format: in vivo, rat; details: i.c.v.; GLP-1 10 ng and 100 ng, [Ser(2)]exendin(1-9) 10 ng
Procedure: Passive avoidance was performed in an apparatus (MED Associates Inc., St. Albans, Vt.) consisting of one dark chamber and one light chamber that can be divided by a guillotine door. The training procedure was executed as previously described (N. Venable et al. Psychopharmacology 100, 215 (1990)). Rats were administered a 1.0 mA shock for 3 sec, mice a 0.5 mA shock for 5 sec. Retention tests were performed either at 1, 3 or 7 days post-pairing. Maximum latency was 600 sec for rats, 300 sec for mice.
In the instant invention, rats were pretreated intranasally with one of three dose levels (10 μg/kg, 30 μg/kg, or 60 μg/kg) of Gilatide in 5% β cyclodextrin or an octamer having a sequence homology to CRH and urocortin. […] A control group received vehicle (5% cyclodextrin) alone. With three dose levels for each of the peptides studied, a total of seven (7) groups were employed, each group having 5-8 rats, for a total of 50 rats tested. On the first day of conditioning, the pretreated rats (N=7-13) were administered a single foot shock trial (0.1 mA over 3 seconds) after entering the dark compartment. The animals were replaced in the test apparatus and latencies again were measured on Days 1, 3, 7, and 21 following the aversive stimulus.
Rats were pretreated with either […] 10 μg/kg Gilatide in 5% β cyclodextrin or vehicle by one of three routes of administration: intranasally, subcutaneously, or intraperitoneally. On Day 0, the rats (N=7-13) were conditioned by administration of a single foot shock trial (0.1 mA over 3 seconds) after entry into the dark compartment of a passive avoidance apparatus (the same passive avoidance chamber used in the first series of experiments). At 24 hours (Day 1) following the initial test, and delivery of the single shock, the animals were replaced in the test apparatus and latency again measured. (FIG. 7)
Rates (N=5-10) were pretreated intranasally with one of five dose levels (0.1 μg/kg, 1 μg/kg, 3 μg/kg, 30 μg/kg or 60 μg/kg) of Gilatide in 5% β cyclodextrin, vehicle (5% cyclodextrin), or Nicotine (0.3 mg/kg, subcutaneously). On Day 0, the rats were conditioned by administration of a single foot shock trial (0.1 mA over 3 seconds) after entry into the dark compartment of a passive avoidance apparatus (the same passive avoidance chamber used in the other experiments). The preconditioned rats were retested on Days 1, 3, 7, and 21.
The effect of Gilatide was tested on memory consolidation by administering the peptide after shock testing. Rats (N=7-13) were preconditioned by administering a single foot shock trial (0.1 mA over 3 seconds) after entering the dark compartment of a passive avoidance apparatus. Twenty (20) minutes after the conditioning session, one group of rats was administered 10 μg/kg of Gilatide intranasally (TRN-TXT). Another group of rats (TXT-DLY-TRN) was administered this same dose of Gilatide 24 hours after the conditioning session. Both treatment groups were returned to the test apparatus 24 hours following treatment and latencies were again measured. […] (FIG. 13)
The effects of Gilatide when used with or without an Exendin-4 antagonist were observed and measured. Rats (N=6-13) were pretreated with either 10 μg/kg or 20 μg/kg of Gilatide with or without an Exendin-4 antagonist (10 μg/kg). A control group was administered vehicle alone. The pretreated rats were conditioned on Day 0 by administration of a single foot shock trial (0.1 mA over 3 seconds) after entry into the dark compartment of a passive avoidance apparatus (the same passive avoidance chamber used in the other experiments). The preconditioned rats were retested on 24 hours later. […] (FIG. 14)
Twenty-four hours later the rats were returned to the apparatus and retested. […] (FIG. 15)

Sequence: HAEGTFTSDVSSVLEGQAAKEFIAWLVKGR [GLP-1, glucagon-like peptide 1]
- insulin release into culture media [1]: stimulated insulin release
- latency in PA (rats): enhanced latency
